From PMC5218480 (PLoS ONE, 2017)

Test system: MV-4-11 cells
Test: Gene expression microarray analysis (Affymetrix PrimeView) and GSEA
Format: cell-based, human
Parameters: RFU PODN (11730768_x_at) / Fold change /veh PODN (11730768_x_at) / RFU LINC00158 (11744669_a_at) / Fold change /veh LINC00158 (11744669_a_at) / RFU DUSP10 (11751237_a_at) / Fold change /veh DUSP10 (11751237_a_at) / RFU ID3 (11757404_x_at) / Fold change /veh ID3 (11757404_x_at) / RFU PLEKHG5 (11737974_s_at) / Fold change /veh PLEKHG5 (11737974_s_at) / RFU LRRC4B (11730491_at) / Fold change /veh LRRC4B (11730491_at) / RFU GIMAP4 (11747438_a_at) / Fold change /veh GIMAP4 (11747438_a_at) / RFU KRT8 (11758183_x_at) / Fold change /veh KRT8 (11758183_x_at) / RFU CNN1 (11734310_a_at) / Fold change /veh CNN1 (11734310_a_at) / RFU VPS37D (11726825_at) / Fold change /veh VPS37D (11726825_at) / RFU C10orf10 (11716522_x_at) / Fold change /veh C10orf10 (11716522_x_at) / RFU KIR2DL2 /// KIR2DL4 /// KIR2DL5A /// KIR2DL5B /// KIR2DS1 /// KIR2DS2 /// KIR2DS3 /// KIR2DS4 /// KIR3DL3 /// KIR3DL3 /// KIR3DS1 (11738374_at) / Fold change /veh KIR2DL2 /// KIR2DL4 /// KIR2DL5A /// KIR2DL5B /// KIR2DS1 /// KIR2DS2 /// KIR2DS3 /// KIR2DS4 /// KIR3DL3 /// KIR3DL3 /// KIR3DS1 (11738374_at) / RFU C1QL1 (11718748_at) / Fold change /veh C1QL1 (11718748_at) / RFU TMPRSS4 (11747572_a_at) / Fold change /veh TMPRSS4 (11747572_a_at) / RFU HAMP (11756126_x_at) / Fold change /veh HAMP (11756126_x_at) / RFU RNFT2 (11725882_a_at) / Fold change /veh RNFT2 (11725882_a_at) / RFU NR4A2 (11747474_a_at) / Fold change /veh NR4A2 (11747474_a_at) / RFU ABCC12 (11746883_a_at) / Fold change /veh ABCC12 (11746883_a_at) / RFU TMEM136 (11760407_x_at) / Fold change /veh TMEM136 (11760407_x_at) / RFU CLDN22 /// WWC2 (11732394_at) / Fold change /veh CLDN22 /// WWC2 (11732394_at) / RFU HLA-DPB1 (11760878_x_at) / Fold change /veh HLA-DPB1 (11760878_x_at) / RFU SPINT1 (11716480_a_at) / Fold change /veh SPINT1 (11716480_a_at) / RFU GAP43 (11754022_s_at) / Fold change /veh GAP43 (11754022_s_at) / RFU A4GNT (11735810_at) / Fold change /veh A4GNT (11735810_at) / RFU PRB3 (11715151_x_at) / Fold change /veh PRB3 (11715151_x_at) / RFU TUBB4B (11761932_at) / Fold change /veh TUBB4B (11761932_at) / RFU CAPN14 (11732068_a_at) / Fold change /veh CAPN14 (11732068_a_at) / RFU TMCC2 (11721928_a_at) / Fold change /veh TMCC2 (11721928_a_at) / RFU IRGQ (11745062_a_at) / Fold change /veh IRGQ (11745062_a_at) / RFU FAM174B (11720279_a_at) / Fold change /veh FAM174B (11720279_a_at) / RFU TMPRSS4 (11748680_a_at) / Fold change /veh TMPRSS4 (11748680_a_at) / RFU FAM212B (11763350_a_at) / Fold change /veh FAM212B (11763350_a_at) / RFU PLEKHG5 (11743358_a_at) / Fold change /veh PLEKHG5 (11743358_a_at) / RFU ZSCAN30 (11745921_a_at) / Fold change /veh ZSCAN30 (11745921_a_at) / RFU CMKLR1 (11741424_a_at) / Fold change /veh CMKLR1 (11741424_a_at) / RFU LOC101060620 /// MAPK8IP1 (11723275_at) / Fold change /veh LOC101060620 /// MAPK8IP1 (11723275_at) / RFU SPTSSB (11747773_x_at) / Fold change /veh SPTSSB (11747773_x_at) / RFU PRSS12 (11739890_at) / Fold change /veh PRSS12 (11739890_at) / RFU BIN1 (11741810_x_at) / Fold change /veh BIN1 (11741810_x_at) / RFU WNT11 (11732464_a_at) / Fold change /veh WNT11 (11732464_a_at) / RFU C10orf10 (11716521_a_at) / Fold change /veh C10orf10 (11716521_a_at) / RFU C5orf56 (11738089_at) / Fold change /veh C5orf56 (11738089_at) / RFU CYB561 (11721691_x_at) / Fold change /veh CYB561 (11721691_x_at) / RFU ANKRD19P (11752326_a_at) / Fold change /veh ANKRD19P (11752326_a_at) / RFU OR2T12 /// OR2T33 /// OR2T8 (11738714_s_at) / Fold change /veh OR2T12 /// OR2T33 /// OR2T8 (11738714_s_at) / RFU VCAN (11748164_a_at) / Fold change /veh VCAN (11748164_a_at) / RFU JSRP1 (11732532_at) / Fold change /veh JSRP1 (11732532_at) / RFU KRTAP10-11 (11738290_x_at) / Fold change /veh KRTAP10-11 (11738290_x_at) / RFU MYO3A (11730013_a_at) / Fold change /veh MYO3A (11730013_a_at) / RFU EBF3 (11725865_a_at) / Fold change /veh EBF3 (11725865_a_at) / RFU CAMK2N1 (11719241_x_at) / Fold change /veh CAMK2N1 (11719241_x_at) / RFU C5orf56 (11738088_a_at) / Fold change /veh C5orf56 (11738088_a_at) / RFU OLFML3 (11715873_a_at) / Fold change /veh OLFML3 (11715873_a_at) / RFU LOC100653217 /// NTM (11731650_a_at) / Fold change /veh LOC100653217 /// NTM (11731650_a_at) / RFU MAPK11 (11762145_a_at) / Fold change /veh MAPK11 (11762145_a_at) / RFU FIZ1 (11724087_x_at) / Fold change /veh FIZ1 (11724087_x_at) / RFU OASL (11726364_x_at) / Fold change /veh OASL (11726364_x_at) / RFU SOX15 (11748057_x_at) / Fold change /veh SOX15 (11748057_x_at) / RFU CD79A (11719716_a_at) / Fold change /veh CD79A (11719716_a_at) / RFU HIST1H1D (11736915_at) / Fold change /veh HIST1H1D (11736915_at) / RFU CASKIN2 (11723855_a_at) / Fold change /veh CASKIN2 (11723855_a_at) / RFU LOC730098 (11760151_x_at) / Fold change /veh LOC730098 (11760151_x_at) / RFU OR4N2 (11742367_at) / Fold change /veh OR4N2 (11742367_at) / RFU PRRT2 (11749266_a_at) / Fold change /veh PRRT2 (11749266_a_at) / RFU SNX32 (11753110_a_at) / Fold change /veh SNX32 (11753110_a_at) / RFU CDHR5 (11726645_a_at) / Fold change /veh CDHR5 (11726645_a_at) / RFU RCAN1 (11760418_a_at) / Fold change /veh RCAN1 (11760418_a_at) / RFU FAM167A (11723789_a_at) / Fold change /veh FAM167A (11723789_a_at) / RFU FAM26E (11764081_at) / Fold change /veh FAM26E (11764081_at) / RFU ISYNA1 (11749810_s_at) / Fold change /veh ISYNA1 (11749810_s_at) / RFU ACY1 (11761880_at) / Fold change /veh ACY1 (11761880_at) / RFU 11764098_at / Fold change /veh 11764098_at / RFU SAMD14 (11745864_x_at) / Fold change /veh SAMD14 (11745864_x_at) / RFU NPB (11741838_a_at) / Fold change /veh NPB (11741838_a_at) / RFU TMPRSS6 (11731388_a_at) / Fold change /veh TMPRSS6 (11731388_a_at) / RFU KRTAP10-2 (11738614_at) / Fold change /veh KRTAP10-2 (11738614_at) / RFU ARHGAP8 /// PRR5-ARHGAP8 (11727945_x_at) / Fold change /veh ARHGAP8 /// PRR5-ARHGAP8 (11727945_x_at) / RFU KRTAP5-7 /// NADSYN1 (11734609_at) / Fold change /veh KRTAP5-7 /// NADSYN1 (11734609_at) / RFU RASL12 (11751679_a_at) / Fold change /veh RASL12 (11751679_a_at) / RFU CDKN2B (11736163_a_at) / Fold change /veh CDKN2B (11736163_a_at) / RFU PRF1 (11729649_at) / Fold change /veh PRF1 (11729649_at) / RFU, ZNF638 /// ZNF638-IT1 / Fold change vs veh, ZNF638 /// ZNF638-IT1 / RFU, PANK3 / Fold change vs veh, PANK3 / RFU, SH3YL1 / Fold change vs veh, SH3YL1 / RFU, ZEB2 / Fold change vs veh, ZEB2 / RFU, NRIP1 / Fold change vs veh, NRIP1 / RFU, PTTG1IP / Fold change vs veh, PTTG1IP / RFU, CAPN2 / Fold change vs veh, CAPN2 / RFU, MED14 / Fold change vs veh, MED14 / RFU, SNORA58 / Fold change vs veh, SNORA58 / RFU, C1orf63 / Fold change vs veh, C1orf63 / RFU, LRRFIP1 / Fold change vs veh, LRRFIP1 / RFU, NDUFAF7 / Fold change vs veh, NDUFAF7 / RFU, SLC12A2 / Fold change vs veh, SLC12A2 / RFU, IBTK / Fold change vs veh, IBTK / RFU, ESF1 / Fold change vs veh, ESF1 / Fold change vs veh, TMEM50B / RFU, TAOK1 / Fold change vs veh, TAOK1 / RFU, ACBD3 / Fold change vs veh, ACBD3 / RFU, TMA16 / Fold change vs veh, TMA16 / RFU, RWDD3 / Fold change vs veh, RWDD3 / RFU, BCAT1 / Fold change vs veh, BCAT1 / RFU, EDEM3 / Fold change vs veh, EDEM3 / RFU, TMEM33 / Fold change vs veh, TMEM33 / RFU, WDR75 / Fold change vs veh, WDR75 / RFU, AHCTF1 / Fold change vs veh, AHCTF1 / RFU, TFRC / Fold change vs veh, TFRC / RFU, ZDHHC17 / Fold change vs veh, ZDHHC17 / RFU, NOM1 / Fold change vs veh, NOM1 / RFU, ARL8B / Fold change vs veh, ARL8B / RFU, ZBTB11 / Fold change vs veh, ZBTB11 / RFU, TAMM41 / Fold change vs veh, TAMM41 / RFU, KIAA1704 /// LOC100996395 / Fold change vs veh, KIAA1704 /// LOC100996395 / RFU, ING1 / Fold change vs veh, ING1 / RFU, TRMT61B / Fold change vs veh, TRMT61B / RFU, FUBP3 / Fold change vs veh, FUBP3 / RFU, TP53 / Fold change vs veh, TP53 / RFU, TNKS2 / Fold change vs veh, TNKS2 / RFU, ZFP14 / Fold change vs veh, ZFP14 / RFU, ACTR2 / Fold change vs veh, ACTR2 / RFU, PPP3R1 / Fold change vs veh, PPP3R1 / RFU, PIK3R1 / Fold change vs veh, PIK3R1 / RFU, HNRNPA1 / Fold change vs veh, HNRNPA1 / RFU, RNF170 / Fold change vs veh, RNF170 / RFU, ZNF28 / Fold change vs veh, ZNF28 / RFU, RNGTT / Fold change vs veh, RNGTT / RFU, OGT / Fold change vs veh, OGT / RFU, BRD1 / Fold change vs veh, BRD1 / RFU, MARS / Fold change vs veh, MARS / RFU, ZNF655 / Fold change vs veh, ZNF655 / RFU, FAHD1 / Fold change vs veh, FAHD1 / RFU, BDP1 / Fold change vs veh, BDP1 / RFU, LRRCC1 / Fold change vs veh, LRRCC1 / RFU, ARID1A / Fold change vs veh, ARID1A / RFU, ZNF146 / Fold change vs veh, ZNF146 / RFU, ZNF330 / Fold change vs veh, ZNF330 / RFU, GPN3 / Fold change vs veh, GPN3 / RFU, C9orf123 / Fold change vs veh, C9orf123 / RFU, N4BP2L2 / Fold change vs veh, N4BP2L2 / RFU, ARFIP1 / Fold change vs veh, ARFIP1 / RFU, FAM179B / Fold change vs veh, FAM179B / RFU, BCL10 / Fold change vs veh, BCL10 / RFU, UHRF1BP1L / Fold change vs veh, UHRF1BP1L / RFU, BET1 / Fold change vs veh, BET1 / RFU, CNOT2 / Fold change vs veh, CNOT2 / RFU, ZNF268 / Fold change vs veh, ZNF268 / Fold change vs veh, ZNF507 / RFU, DGCR2 / Fold change vs veh, DGCR2 / RFU, WDSUB1 / Fold change vs veh, WDSUB1 / Fold change vs veh, HSP90B1 /// MIR3652 / RFU, ADSS / Fold change vs veh, ADSS / RFU, GK / Fold change vs veh, GK / RFU, ZNF148 / Fold change vs veh, ZNF148 / RFU, TAF9 / Fold change vs veh, TAF9 / RFU, SLC1A5 / Fold change vs veh, SLC1A5 / RFU, SLMO2 / Fold change vs veh, SLMO2 / RFU, ABCC4 / Fold change vs veh, ABCC4 / RFU, LOC101060439 /// RAP1B / Fold change vs veh, LOC101060439 /// RAP1B / RFU, RFX7 / Fold change vs veh, RFX7 / RFU, GTPBP10 / Fold change vs veh, GTPBP10 / RFU, CNEP1R1 / Fold change vs veh, CNEP1R1 / RFU, BIVM-ERCC5 /// ERCC5 / Fold change vs veh, BIVM-ERCC5 /// ERCC5 / RFU, ILF3 / Fold change vs veh, ILF3 / RFU 11762660_at / Fold change /veh 11762660_at / RFU VCAN (11757783_s_at) / Fold change /veh VCAN (11757783_s_at) / RFU DDX43 (11728927_at) / Fold change /veh DDX43 (11728927_at) / RFU KRT8 (11758188_x_at) / Fold change /veh KRT8 (11758188_x_at) / RFU NKD1 (11759106_at) / Fold change /veh NKD1 (11759106_at) / RFU SRD5A1 (11742802_a_at) / Fold change /veh SRD5A1 (11742802_a_at) / RFU TPSAB1 /// TPSB2 (11721975_s_at) / Fold change /veh TPSAB1 /// TPSB2 (11721975_s_at) / RFU GSTM3 (11746129_a_at) / Fold change /veh GSTM3 (11746129_a_at) / RFU IL23R (11737362_x_at) / Fold change /veh IL23R (11737362_x_at) / RFU TMEM51 (11727254_a_at) / Fold change /veh TMEM51 (11727254_a_at) / RFU PIWIL2 (11732686_x_at) / Fold change /veh PIWIL2 (11732686_x_at) / RFU ORM1 (11744905_x_at) / Fold change /veh ORM1 (11744905_x_at) / RFU CCDC152 (11743942_at) / Fold change /veh CCDC152 (11743942_at) / RFU ECM1 (11717891_a_at) / Fold change /veh ECM1 (11717891_a_at) / RFU IL23R (11748794_a_at) / Fold change /veh IL23R (11748794_a_at) / RFU TNFAIP8L3 (11732012_x_at) / Fold change /veh TNFAIP8L3 (11732012_x_at) / RFU MBOAT4 (11741988_at) / Fold change /veh MBOAT4 (11741988_at) / RFU 11764193_at / Fold change /veh 11764193_at / RFU TMEM53 (11763286_at) / Fold change /veh TMEM53 (11763286_at) / RFU MAGEB2 (11727129_at) / Fold change /veh MAGEB2 (11727129_at) / RFU TMEM200A (11744735_a_at) / Fold change /veh TMEM200A (11744735_a_at) / RFU CCDC152 (11751479_a_at) / Fold change /veh CCDC152 (11751479_a_at) / RFU FAM211A (11726209_a_at) / Fold change /veh FAM211A (11726209_a_at) / RFU RGS16 (11746705_a_at) / Fold change /veh RGS16 (11746705_a_at) / RFU VCAN (11755009_s_at) / Fold change /veh VCAN (11755009_s_at) / RFU RHOB (11743442_s_at) / Fold change /veh RHOB (11743442_s_at) / RFU RGS16 (11720943_a_at) / Fold change /veh RGS16 (11720943_a_at) / RFU RGS16 (11720944_at) / Fold change /veh RGS16 (11720944_at) / RFU, VPS4B / Fold change vs veh, VPS4B / RFU, CREB1 / Fold change vs veh, CREB1 / RFU, DNAJC13 / Fold change vs veh, DNAJC13 / RFU, GNAQ / Fold change vs veh, GNAQ / RFU, CDK5R1 / Fold change vs veh, CDK5R1 / RFU, ZRANB3 / Fold change vs veh, ZRANB3 / RFU, CUL4A / Fold change vs veh, CUL4A / RFU, CCNY / Fold change vs veh, CCNY / RFU, UFL1 / Fold change vs veh, UFL1 / RFU, COG3 / Fold change vs veh, COG3 / RFU, DIAPH2 / Fold change vs veh, DIAPH2 / RFU, SKA2 / Fold change vs veh, SKA2 / RFU, AFF3 / Fold change vs veh, AFF3 / RFU, LMF1 / Fold change vs veh, LMF1 / RFU, IPO11 / Fold change vs veh, IPO11 / RFU, DFFB / Fold change vs veh, DFFB / RFU, FOXP1 / Fold change vs veh, FOXP1 / RFU, CARD8 / Fold change vs veh, CARD8 / RFU, STRN3 / Fold change vs veh, STRN3 / RFU, ADK / Fold change vs veh, ADK / RFU, RASSF2 / Fold change vs veh, RASSF2 / RFU, WIPF1 / Fold change vs veh, WIPF1 / RFU, LARP1B / Fold change vs veh, LARP1B / RFU, RASA1 / Fold change vs veh, RASA1 / RFU, RB1 / Fold change vs veh, RB1 / RFU, PPFIA1 / Fold change vs veh, PPFIA1 / RFU, MAT2A / Fold change vs veh, MAT2A / RFU, CCT5 / Fold change vs veh, CCT5 / RFU, WDR92 / Fold change vs veh, WDR92 / RFU, CUX1 / Fold change vs veh, CUX1 / RFU, TTC7A / Fold change vs veh, TTC7A / RFU, TMEM135 / Fold change vs veh, TMEM135 / RFU, DEPTOR / Fold change vs veh, DEPTOR / RFU, CPM / Fold change vs veh, CPM / RFU, DNAJB6 / Fold change vs veh, DNAJB6 / RFU, CACNA2D3 / Fold change vs veh, CACNA2D3 / RFU, DTX4 / Fold change vs veh, DTX4 / RFU, TFCP2 / Fold change vs veh, TFCP2 / RFU, GMCL1 /// GMCL1P1 / Fold change vs veh, GMCL1 /// GMCL1P1 / RFU, AEBP2 / Fold change vs veh, AEBP2 / RFU, SNHG1 /// SNORD22 /// SNORD25 /// SNORD26 /// SNORD27 /// SNORD28 /// SNORD29 /// SNORD31 / Fold change vs veh, SNHG1 /// SNORD22 /// SNORD25 /// SNORD26 /// SNORD27 /// SNORD28 /// SNORD29 /// SNORD31 / Fold change (Aza/veh), C12orf56 (ProbeSet 11735607_a_at) / Fold change (ACY-1035/veh), C12orf56 (ProbeSet 11735607_a_at) / Fold change (Aza/veh), FGFR1OP (ProbeSet 11751329_s_at) / Fold change (ACY-1035/veh), FGFR1OP (ProbeSet 11751329_s_at) / Fold change (Aza/veh), VPS36 (ProbeSet 11739960_a_at) / Fold change (ACY-1035/veh), VPS36 (ProbeSet 11739960_a_at) / RFU SYPL1 (11715823_x_at) / Fold change /veh SYPL1 (11715823_x_at) / RFU IGFBP7 (11715501_s_at) / Fold change /veh IGFBP7 (11715501_s_at) / RFU REEP3 (11722064_at) / Fold change /veh REEP3 (11722064_at) / RFU IGLL1 (11728026_x_at) / Fold change /veh IGLL1 (11728026_x_at): dose or concentration left out as unconfirmed
Details: MV-4-11 cells, 48 hours

**Q.** With `Nc1ncn([C@@H]2O[C@H](CO)[C@@H](O)[C@H]2O)c(=O)n1` [azacitidine] as the compound, how does the “RFU LOC100653217 /// NTM (11731650_a_at)” value read?
**A.** The value was 11.58 RFU.
